Data on 7 molecules can be found in ChEMBL document CHEMBL1201862, “PubChem BioAssay data set” (2004).

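Tested at 5 concentrations; 48 h exposure; 96-well plates; endpoints linearly interpolated, else capped at highest concentration. GI50 is the concentration that inhibits growth by half.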 Activity calls are given as the source filed them. Rule as the data show it: active = GI50 up to about 1.1 µM and inactive = higher.

Test systems include SNB-75; EKVX; HCC 2998; ACHN; MOLT-4; M14; NCI-H522; CCRF-CEM; HL-60; TK-10; RPMI-8226; SNB-19; A498; RXF 393; MDA-MB-231; MDA-MB-435; SW-620; SF-539; NCI-H23; A549.
Experiment in all cases: inhibition of tumour cell growth, NCI panel, 48 h

Consider `O=C1c2c[nH]nc2C(c2ccccc2)N1c1ccccc1` (stereo not given), for which the GI50 in the experiment with SNB-75, in the experiment on EKVX, in the experiment with HCC 2998, with ACHN, in the experiment on MOLT-4 and in the experiment with M14 was > 10 µM (inactive) throughout. Further, the GI50 in the experiment with NCI-H522, with CCRF-CEM, in the experiment with HL-60, with TK-10, in the experiment with RPMI-8226 and in the experiment on SNB-19 was > 10 µM (inactive) in each case. For the same molecule, the GI50 in the experiment with A498, in the experiment on RXF 393, with MDA-MB-231, with MDA-MB-435, in the experiment with SW-620 and with SF-539 was > 10 µM (inactive) each time. Further, the GI50 in the experiment on NCI-H23 and in the experiment on A549 was > 10 µM (inactive) each time.

For the molecule `O=C1CNCCCN2CCN(CCCNCC(=O)Nc3ccc(cc3)S(=O)(=O)c3ccc(cc3)NC(=O)CNCCCN3CCN(CCCNCC(=O)Nc4ccc(cc4)S(=O)(=O)c4ccc(cc4)N1)CC3)CC2`, the GI50 in the experiment on SNB-75 was 37.2 µM (inactive); in the experiment on EKVX it was 36.6 µM (inactive); with HCC 2998, 21.2 µM (inactive); in the experiment with ACHN, 25.6 µM (inactive); in the experiment on MOLT-4, 19.4 µM (inactive); in the experiment on M14 it was 46 µM (inactive). Also, the GI50 in the experiment with NCI-H522 was 10.7 µM (inactive); with CCRF-CEM, 1.57 µM (inactive); in the experiment on HL-60, 0.433 µM (active); in the experiment on TK-10, 20.8 µM (inactive); in the experiment with RPMI-8226, 29.2 µM (inactive); in the experiment with SNB-19, 52.2 µM (inactive). The GI50 in the experiment with A498 is 20.7 µM (inactive); in the experiment on RXF 393, 28.6 µM (inactive); in the experiment with MDA-MB-231, 22.5 µM (inactive); with MDA-MB-435, 20.9 µM (inactive); in the experiment with SW-620, 31.4 µM (inactive); in the experiment with SF-539, 19.5 µM (inactive). Besides, the GI50 is 30.3 µM (inactive) in the experiment with NCI-H23 and 57.3 µM (inactive) with A549.

Regarding `C=C1CC[C@@H](CCC2CCC3(OC2)O[C@]2(O)CC[C@@]3(C)OC2(C)C)C(C)(C)[C@H]1C/C=C1\CCOC1=O` (stereo not given in full), the GI50 in the experiment on SNB-75 was 19.6 µM (inactive); with EKVX, 1.11 µM (active); with HCC 2998, 10.9 µM (inactive); in the experiment on ACHN, 10.7 µM (inactive); in the experiment with MOLT-4, 1.97 µM (inactive); with M14, 17.7 µM (inactive). The GI50 was 5.32 µM (inactive) in the experiment on NCI-H522; 10.4 µM (inactive) with CCRF-CEM; 1.36 µM (inactive) in the experiment on HL-60; 39.5 µM (inactive) with TK-10; 1.9 µM (inactive) in the experiment on RPMI-8226; 51.5 µM (inactive) in the experiment with SNB-19. In addition, the GI50 in the experiment on A498 is 13.3 µM (inactive); in the experiment on RXF 393, 14.9 µM (inactive); with MDA-MB-231 it was 23.6 µM (inactive); in the experiment with MDA-MB-435 it was 14.3 µM (inactive); with SW-620, 33.3 µM (inactive); in the experiment on SF-539, 5.3 µM (inactive). Besides, the GI50 in the experiment on NCI-H23 was 0.444 µM (active); in the experiment with A549, 8.89 µM (inactive).

As for `CNC(=O)CCCN(C)C(=O)CCCCC(=O)N(C)C`, the GI50 was > 53.8 µM (inactive) in the experiment on SNB-75; > 57.9 µM (inactive) in the experiment with EKVX; > 51.1 µM (inactive) in the experiment with HCC 2998; > 61.1 µM (inactive) in the experiment on ACHN; 41.6 µM (inactive) in the experiment with MOLT-4; > 100 µM (inactive) with M14. The GI50 in the experiment with NCI-H522 is > 58.6 µM (inactive); with CCRF-CEM it was 40.5 µM (inactive); in the experiment with HL-60 it was 26.7 µM (inactive); in the experiment on TK-10 it was > 56.8 µM (inactive); in the experiment on RPMI-8226, > 57.1 µM (inactive); in the experiment on SNB-19, > 60.1 µM (inactive). For the same molecule, the GI50 with A498 is 34.4 µM (inactive); in the experiment with RXF 393 it was > 100 µM (inactive); in the experiment with MDA-MB-231, > 37.8 µM (inactive); with MDA-MB-435, > 56 µM (inactive); in the experiment with SW-620, > 59.6 µM (inactive); in the experiment on SF-539 it was > 59.8 µM (inactive). The GI50 was > 60.1 µM (inactive) in the experiment on NCI-H23 and > 57.1 µM (inactive) with A549.

On to `O=[N+]([O-])c1cc([As](Br)c2ccc(O)c([N+](=O)[O-])c2)ccc1O`, for which the GI50 with SNB-75 was 1.93 µM (inactive); in the experiment on EKVX it was 1.87 µM (inactive); in the experiment on HCC 2998, 1.02 µM (active); in the experiment with ACHN, 1.86 µM (inactive); in the experiment on MOLT-4, 0.259 µM (active); in the experiment with M14, 2.03 µM (inactive). The GI50 was 0.145 µM (active) in the experiment with NCI-H522; 0.167 µM (active) with CCRF-CEM; 1.17 µM (inactive) in the experiment on HL-60; 1.58 µM (inactive) with TK-10; 0.208 µM (active) with RPMI-8226; 1.94 µM (inactive) with SNB-19. In addition, the GI50 is 1.95 µM (inactive) with A498; 1.56 µM (inactive) in the experiment with RXF 393; 1.39 µM (inactive) with MDA-MB-231; 1.78 µM (inactive) with MDA-MB-435; 0.733 µM (active) in the experiment with SW-620; 1.77 µM (inactive) in the experiment on SF-539. In addition, the GI50 was 2.17 µM (inactive) in the experiment on NCI-H23 and 2.62 µM (inactive) in the experiment with A549.

With `CC(=O)OCC1OC(n2cnc3nc(Br)[nH]c(=O)c32)C(OC(C)=O)C1OC(C)=O` (stereo not given), the GI50 was 70.3 µM (inactive) in the experiment with SNB-75; > 100 µM (inactive) with EKVX; > 100 µM (inactive) with HCC 2998; > 100 µM (inactive) in the experiment with ACHN; > 100 µM (inactive) in the experiment on MOLT-4; > 100 µM (inactive) in the experiment with M14. Moreover, the GI50 in the experiment with NCI-H522, in the experiment on CCRF-CEM, with HL-60, with TK-10, with RPMI-8226 and in the experiment on SNB-19 was > 100 µM (inactive) throughout. Moreover, the GI50 with A498, in the experiment on RXF 393, in the experiment with MDA-MB-231, in the experiment with MDA-MB-435, in the experiment with SW-620 and in the experiment on SF-539 was > 100 µM (inactive) each time. Also, the GI50 in the experiment with NCI-H23 and in the experiment on A549 was > 100 µM (inactive) each time.

In the case of `O=C(CC(=O)c1ccccc1NC1=Cc2ccccc2C(=O)C1=O)C(=O)NC1=C(Cl)C(=O)c2ccccc2C1=O`, the GI50 was 1.69 µM (inactive) in the experiment on SNB-75; 7.98 µM (inactive) in the experiment with EKVX; 9.84 µM (inactive) with HCC 2998; 3.56 µM (inactive) with ACHN; 1.24 µM (inactive) with MOLT-4; 1.47 µM (inactive) in the experiment on M14. The GI50 is 1.91 µM (inactive) in the experiment with NCI-H522; 2.03 µM (inactive) in the experiment on CCRF-CEM; 0.605 µM (active) with HL-60; 22.3 µM (inactive) with TK-10; 1.56 µM (inactive) in the experiment on RPMI-8226; 5.56 µM (inactive) with SNB-19. Further, the GI50 was 14.7 µM (inactive) in the experiment on A498; 2.34 µM (inactive) in the experiment with RXF 393; 2.42 µM (inactive) with MDA-MB-231; 1.85 µM (inactive) in the experiment with MDA-MB-435; 2.43 µM (inactive) with SW-620; 4.31 µM (inactive) with SF-539. Also, the results for the GI50 in the experiment on NCI-H23 and in the experiment with A549 were 1.57 µM (inactive) and 4.55 µM (inactive), respectively.
